Source: patent publication US11944661B2, “Pharmaceutical composition containing extract of leaves of Vaccinium bracteatum Thunb. for prevention or treatment of stress disease and depression” (JEONNAM BIOINDUSTRY FOUNDATION, priority 2017, dated 2024)
Where a name gives a salt, the structure may show the parent alone. Read-outs that look alike come from different tables or passages of the source.

Experiments:
SH-SY5Y cells = test: Cytotoxicity of the pharmacological inhibitors alone, 24-hour incubation
Description: An experiment was carried out to find out the working signaling pathway responsible for the neuroprotective activity of the Vaccinium bracteatum Thunb. leaf extracts against corticosterone-induced neuronal damage. In this experiment, SH-SY5Y cells were pretreated for 1 hour with wortmanin, rapamycin, H89, and PD98059, which are respective pharmacological inhibitors of the PI3K (phosphoinositide 3-kinase), mTOR, PKA (protein kinase A), and MAPK/ERK kinase pathways and then incubated for 2 hours with the hot-water extracts of Vaccinium bracteatum Thunb. leaves (3 μg/ml). Thereafter, 24 hours of incubation with corticosterone (1 mM) was followed by measuring cell viability through MTT assay.
For use in the experiment, the inhibitors alone were assayed for cytotoxicity.

[1] = test system: male ICR mice subjected to chronic restraint stress (CRS); test: Open field test (OFT) in chronic restraint stress (CRS) mice; type: in vivo; conditions: three weeks of CRS; 5 minutes; positive control
Description: Male ICR mice were purchased and subjected to chronic restraint stress (CRS). In this regard, a constant restraint stress was given by immobilizing the mice for 6 hours per day (a.m. 11 to p.m.5) in an acrylic box 20 cm in height and 7 cm in diameter for three weeks. The hot-water extracts of Vaccinium bracteatum Thunb. leaves were orally administered at each dose to the mice daily 30 min before the stress was given at the same time. For the control, the same volume of saline was administered. As a comparative group, escitalopram oxalate, which is an antidepressant, was orally administered. Animal behavior tests were performed the next day after 3 weeks of restraint stress stimulation. The open field test (OFT) was followed by the forced swimming test (FST). After the FST evaluation, whole blood was collected from the mice which were then autopsied to excise the hippocampus and prefrontal cortex. These brain tissues were immediately stored at −70° C. until use in experiments. The open field test (OFT) is an experimental test used to assay locomotor activity levels of animals to determine the anti-anxiety and anti-depressive effects of drugs. An OFT box is an arena having the dimensions of 60 cm diameter×20 cm height with the bottom surface divided into 25 cells. […] In the OFT box, the number of cells which the animal voluntarily crossed for 5 minutes was counted. […]

corticosterone = test: Serum stress hormone corticosterone level (ELISA) in normal mice after six days of administration; type: in vivo; conditions: comparative group, dose not given
Description: After six days of drug administration to mice in a normal state, effects on the level of the stress hormone corticosterone in sera of the mice were measured using the Abnova ELISA kit according to the manufacturer's instruction.

male ICR mice = test: Forced swimming test (FST) in normal mice after 1 or 6 days of oral administration; type: in vivo; conditions: comparative group, dose not given
Description: For use in assaying an antidepressant effect of the Vaccinium bracteatum Thunb. leaf extracts, male ICR mice, 6 weeks of age, were purchased from […], Korea. The animals were acclimated to a certain condition in an animal breeding room (temperature: 22±2° C., humidity: 50±5%, contrast: 12-hour light/12-hour dark cycle) for one week before use. Male ICR mice were orally administered the Vaccinium bracteatum Thunb. leaf extract the present invention while escitalopram oxalate was used as an antidepressant for a comparative group. Oral administration was conducted for 1 or 6 days according to the experiment. In a forced swimming test (FST), which is a pre-swim test on the day before the main test (post-swim), tap water of around 25° C. was poured into a cylindrical water tank (about 20 cm in diameter, 40 cm in height) to the height of 15 cm from the bottom, after which the mice were put thereinto and forced to swim for 15 minutes. Then, the mice were withdrawn from the water, wiped with a dry towel, and returned to the breeding box. After 1 or 6 days of drug administration, the main test (post-swim) was performed and video was taken with forced swimming for 6 minutes with the mice in the cylinder. In the recorded images for the five minutes exclusive of the first one minute, the animal behavior was classified into three types for analysis: the animals were floating in the water, showing a slight movement, with only a part of the upper body including the face exposed on the water face (immobility behavior); the animals were swimming around the cylinder in the horizontal direction while splashing the water with their forepaws and rear paws (swimming behavior); and the animals were making the fierce movement of pulling the paws out of the water, scrapping the wall (climbing behavior). Times for the three movements were measured.

[2] = test system: male ICR mice subjected to chronic restraint stress (CRS); test: Forced swimming test (FST) in chronic restraint stress (CRS) mice; type: in vivo; conditions: three weeks of CRS; 10 mg/kg p.o
Description: In a forced swimming test (FST), which is a pre-swim test on the day before the main test (post-swim), tap water of around 25° C. was poured into a cylindrical water tank (about 20 cm in diameter, 40 cm in height) to the height of 15 cm from the bottom, after which the mice were put thereinto and forced to swim for 15 minutes. Then, the mice were withdrawn from the water, wiped with a dry towel, and returned to the breeding box. After 1 or 6 days of drug administration, the main test (post-swim) was performed and video was taken with forced swimming for 6 minutes with the mice in the cylinder. In the recorded images for the five minutes exclusive of the first one minute, the animal behavior was classified into three types for analysis: the animals were floating in the water, showing a slight movement, with only a part of the upper body including the face exposed on the water face (immobility behavior); the animals were swimming around the cylinder in the horizontal direction while splashing the water with their forepaws and rear paws (swimming behavior); and the animals were making the fierce movement of pulling the paws out of the water, scrapping the wall (climbing behavior). Times for the three movements were measured. Male ICR mice were purchased and subjected to chronic restraint stress (CRS). In this regard, a constant restraint stress was given by immobilizing the mice for 6 hours per day (a.m. 11 to p.m.5) in an acrylic box 20 cm in height and 7 cm in diameter for three weeks. The hot-water extracts of Vaccinium bracteatum Thunb. leaves were orally administered at each dose to the mice daily 30 min before the stress was given at the same time. For the control, the same volume of saline was administered. As a comparative group, escitalopram oxalate, which is an antidepressant, was orally administered. Animal behavior tests were performed the next day after 3 weeks of restraint stress stimulation. The open field test (OFT) was followed by the forced swimming test (FST). […]

In the case of `O=S(=O)(NCCNC/C=C/c1ccc(Br)cc1)c1cccc2cnccc12` [H89], the “cytotoxicity of inhibitor alone” value (SH-SY5Y cells) is reported as “No cytotoxicity”.

With `COc1cccc(-c2cc(=O)c3ccccc3o2)c1N` [PD98059] the “cytotoxicity of inhibitor alone” value (SH-SY5Y cells) was “No cytotoxicity”.

With `CN(C)CCC[C@@]1(c2ccc(F)cc2)OCc2cc(C#N)ccc21` [escitalopram oxalate] the “number of crossing (locomotor activity)” value [1] was 182.73±5.60 crossings, the stress hormone corticosterone in sera (corticosterone) was 765 ± 97.5 ng/mL and the climbing time (male ICR mice; one-day administration) was 12.43 ± 3.47 s. For the same molecule, the immobility time (male ICR mice; one-day administration) was 194.65 ± 11.55 s, the immobility time (male ICR mice; six-day administration) was 169.65 ± 7.15 s and the swimming time (male ICR mice; six-day administration) was 128.16 ± 6.65 s. It also gave a climbing time [2] of 105.23 ± 15.37 s, an immobility time [2] of 154.74 ± 14.80 s and a swimming time [2] of 146.58 ± 14.84 s.

With `CO[C@H]1C[C@@H]2CC[C@@H](C)[C@@](O)(O2)C(=O)C(=O)N2CCCC[C@H]2C(=O)O[C@H]([C@H](C)C[C@@H]2CC[C@@H](O)[C@H](OC)C2)CC(=O)[C@H](C)/C=C(\C)[C@@H](O)[C@@H](OC)C(=O)[C@H](C)C[C@H](C)/C=C/C=C/C=C/1C` [rapamycin] the “cytotoxicity of inhibitor alone” value (SH-SY5Y cells) was “No cytotoxicity”.

In the case of `COC[C@H]1OC(=O)c2coc3c2[C@@]1(C)C1=C(C3=O)[C@@H]2CCC(=O)[C@@]2(C)C[C@H]1OC(C)=O` [wortmanin], the “cytotoxicity of inhibitor alone” value (SH-SY5Y cells; 24-hour incubation, inhibitor alone) is reported as “except for the PI3K inhibitor (wortmanin)”.
